# Structures can show the parent of a compound that is named as a salt. Where two headings read alike, the source gives them in different places.
# How the values were obtained:
# [1] = tested on: LLC (mouse lung cancer cells); assay: In vitro anti-tumor cell proliferation activity (MTT method), LLC; type: cell-based; settings: 48 h, read-out: IC50 values of in vitro anti-cell proliferation activity
# Method: (§2) Tested cell lines S180 (mouse ascites tumor cells), LLC (mouse lung cancer cells), A549 (human non-small cell lung cancer cells), HCT116 (human colon cancer cells), U2Os (human osteosarcoma cells), and MCF-7 (human breast cancer cells) each were purchased from Nanjing KeyGen Biotech.
# (§3) When preparing a test sample, the test compound was prepared into a sample solution with a concentration of 500 μM (with a final concentration 100 μM) by a PBS buffer containing 0.5% DMSO, which was used for preliminary screening of an anti-cell proliferation experiment in vitro.
# (§4) Positive control group: doxorubicin, prepared to a required concentration with PBS buffer containing 0.5% DMSO; negative control group: a PBS buffer containing 0.5% DMSO; blank group: a PBS buffer containing 0.01% DMSO.
# [2] = tested on: MCF-7 (human breast cancer cells); assay: In vitro anti-tumor cell proliferation activity (MTT method), MCF-7; type: cell-based; settings: read-out: IC50 values of in vitro anti-cell proliferation activity
# Method: as §2, §3, §4
# [3] = tested on: U2Os (human osteosarcoma cells); assay: In vitro anti-tumor cell proliferation activity (MTT method), U2Os; type: cell-based; settings: 48 h, read-out: IC50 values of in vitro anti-cell proliferation activity
# Method: as §2, §3, §4
# [4] = tested on: S180 (mouse ascites tumor cells); assay: In vitro anti-tumor cell proliferation activity (MTT method), S180; type: cell-based; settings: read-out: IC50 values of in vitro anti-cell proliferation activity
# Method: as §2, §3, §4
# [5] = tested on: HCT116 (human colon cancer cells); assay: In vitro anti-tumor cell proliferation activity (MTT method), HCT116; type: cell-based; settings: read-out: IC50 values of in vitro anti-cell proliferation activity
# Method: as §2, §3, §4
# [6] = tested on: mouse S180 sarcoma model; assay: Inhibition of tumor growth in vivo (mouse S180 sarcoma model); parameters: species or system male ICR mice; settings: for Average tumor weight: Mean ± SD, n 10
# Method: The mice used in the experiment were male ICR mice of SPF grade, weighing 20 g±2 g, purchased from Beijing Vital River Laboratory Animal Technology Co., Ltd., and raised in an animal barrier of the Experimental Animal Department of Capital Medical University.
# (§1) The specific method included: drugs were administered to tumor-forming mice by group for 7 consecutive days, a length of the tumor was measured every other day to calculate a tumor volume. 24 h after the last administration, the mice were weighed, anesthetized with diethyl ether, and eyeballs were removed to collect blood; the obtained whole blood was centrifuged at 1,000 rpm for 10 min, and a serum was absorbed for later use. The mice were sacrificed by neck dislocation, and the tumor mass and various organs were stripped and weighed (it was ensured that the operation was done as soon as possible and the stripping was complete and clean). The tumor inhibition rate was calculated by formula b, the results were shown in Table 2 and FIG. 2; and by calculating a viscera-weight ratio of each organ, and it was analyzed whether the test compound had obvious physiological effects on the mouse organs.
# [7] = tested on: A549 (human non-small cell lung cancer cells); assay: In vitro anti-tumor cell proliferation activity (MTT method), A549; type: cell-based; settings: read-out: IC50 values of in vitro anti-cell proliferation activity
# Method: as §2, §3, §4
# [8] = Water solubility; type: physicochemical; settings: decides the injection route
# [9] = Nanomorphology characterization and stability (TEM, SEM, hydration particle size, Zeta potential); type: physicochemical
# From the text: The nanomorphology of compounds ZD-B and ZD-E-1 were studied by TEM and SEM, and hydration particle size and Zeta potential of the two compounds in a solution were studied by a nanometer particle size analyzer. The results were shown in FIG. 1A-H. In FIG. 1A-H, FIG. 1A was a TEM image of the compound ZD-B; FIG. 1B was a TEM image of the compound ZD-E-1; FIG. 1C was a SEM image of the compound ZD-B; FIG. 1D was a SEM image of the compound ZD-E-1; FIG. 1E was a hydration particle size change curve of the compound ZD-B in solutions at different pH values within 72 h (0.5 h, 24 h, 48 h, and 72 h); FIG. 1F was a hydration particle size change curve of the compound ZD-E-1 in solutions at different pH solutions within 72 h; FIG. 1G was a Zeta potential change curve of the compound ZD-B in solutions at different pH values within 72 h; and FIG. 1H was a Zeta potential change curve of the compound ZD-E-1 in solutions at different pH values within 72 h.
# [10] = Viscera-weight ratio / toxicity in tumor-bearing mice; type: in vivo, male ICR mice; settings: FIG. 5
# Method: as §1
# After a preliminary study on the in vivo anti-tumor growth activity of different amino acid main compounds, ZD-A, ZD-B, ZD-E-1, and ZD-E-1 with an increased side-chain methylene unit (ZD-F-1) were selected; three dosages of 10 μmol/kg, 5 μmol/kg, and 2 μmol/kg were set to evaluate the inhibitory ability of the four compounds on tumor growth in mice. […] Afterwards, the tumor growth trend and the viscera-weight ratio of the two compounds on mice were analyzed to compare the anti-tumor growth ability and toxicity of the two compounds. The results were shown in FIG. 4 and FIG. 5: after one-way analysis of variance, * meant that compared with the Vehicle group, there was a difference, P<0.05; ** represented a significant difference compared with the Vehicle group, P<0.01.
# [11] = Table 2, 2 μmol/kg, ip, 7 consecutive days
# [12] = Table 2, 10 μmol/kg, ip, 7 consecutive days
structure (smiles),measurement,setting,value
"COc1cccc2c1C(=O)c1c(O)c3c(c(O)c1C2=O)C[C@@](O)(C(=O)CO)C[C@@H]3O[C@H]1C[C@H](N)[C@H](O)[C@H](C)O1 [DOX, doxorubicin, reference compound]",IC50,"[1]; Mus musculus, LLC, Mean ± SD",0.19 ± 0.095 µM
same,IC50,"[2]; Homo sapiens, MCF7, MCF-7, 48 h, Mean ± SD",1.03 ± 0.188 µM
same,IC50,"[3]; Homo sapiens, U2Os, Mean ± SD",1.2 ± 0.034 µM
same,IC50,"[4]; Mus musculus, S-180, S180, 48 h, Mean ± SD",0.49 ± 0.092 µM
same,IC50,"[5]; Homo sapiens, HCT-116, HCT116, 48 h, Mean ± SD",0.375 ± 0.108 µM
same,Tumor Inhibition Rate,[6]; [11],51.80%
same,Average tumor weight,[6]; [11],0.861 ± 0.462 g
same,IC50,"[7]; Homo sapiens, A549, 48 h, Mean ± SD",0.229 ± 0.052 µM
"CN(C)c1ccc2cc(C(=O)NC(CCCNC(=N)CCl)C(=O)NCc3ccccc3)ccc2c1 (stereo not drawn) [YW3-56, N-(1-(benzylamino)-5-(2-chlorooxalimide)-1-oxopentan-2-yl)-6-(dimethylamino)-2-naphthylamide, reference compound]",Tumor Inhibition Rate,[6]; [12],44.39%
same,Average tumor weight,[6]; [12],0.994 ± 0.310 g
same,Tumor Inhibition Rate,"[6]; Table 3, 10 μmol/kg, iv",44.38%
same,Average tumor weight,"[6]; Table 3, 10 μmol/kg, iv",0.954 ± 0.298 g
"N=C(NCCC[C@H](Nc1ccc([N+](=O)[O-])c2nonc12)C(=O)OCc1ccccc1)N[N+](=O)[O-] [ZD-A, NBD-Arg(NO2)-OBzl]",IC50,[1]; Mus musculus,> 100 µM
same,IC50,"[2]; Homo sapiens, MCF7, 48 h",> 100 µM
same,IC50,"[3]; Homo sapiens, U2OS",> 100 µM
same,IC50,"[4]; Mus musculus, S-180, 48 h",> 100 µM
same,IC50,"[5]; Homo sapiens, HCT-116, 48 h",> 100 µM
same,Water solubility,[8],poor water solubility
same,Average tumor weight compared with Vehicle group (one-way analysis of variance),"[6]; 10 μmol/kg, ip",different from that of Vehicle group
same,Tumor Inhibition Rate,[6]; [12],36.19%
same,Average tumor weight,[6]; [12],1.140 ± 0.437 g
same,Tumor Inhibition Rate,"[6]; Table 3, 2 μmol/kg, ip",23.36%
same,Average tumor weight,"[6]; Table 3, 2 μmol/kg, ip",1.315 ± 0.338 g
same,Tumor Inhibition Rate,"[6]; Table 3, 5 μmol/kg, ip",28.20%
same,Average tumor weight,"[6]; Table 3, 5 μmol/kg, ip",1.232 ± 0.102 g
same,Tumor Inhibition Rate,"[6]; Table 3, 10 μmol/kg, ip",29.78%
same,Average tumor weight,"[6]; Table 3, 10 μmol/kg, ip",1.204 ± 0.438 g
same,IC50,"[7]; Homo sapiens, A549, 48 h",> 100 µM
"CC(C)C[C@H](Nc1ccc([N+](=O)[O-])c2nonc12)C(=O)N[C@H](C(=O)OCc1ccccc1)C(C)C [ZD-B, NBD-LV-OBzl]",IC50,"[1]; LLC, Mean ± SD",96.5 ± 6.85 µM
same,IC50,"[3]; U2Os, Mean ± SD",86.4 ± 5.3 µM
same,IC50,"[4]; S180, 48 h, Mean ± SD",74.4 ± 10.1 µM
same,IC50,"[5]; HCT116, 48 h, Mean ± SD",> 100 µM
same,Nanomorphology (shape),[9]; TEM and SEM,shape of a strip
same,Hydration particle size change,"[9]; pH=2.0, measured continuously for 72 h",great change in particle size
same,Hydration particle size change,"[9]; pH=5.5, measured continuously for 72 h",great change in particle size
same,Hydration particle size,"[9]; pH=7.0 versus other pH values, 72 h",smallest particle size at pH=7.0
same,Zeta potential change,"[9]; solutions at different pH values, measured continuously for 72 h",neither ZD-B nor ZD-E-1 had an obvious change
same,Water solubility,[8],poor water solubility
same,Anti-tumor growth activity (in words),"[6]; 10 μmol/kg, ip",most prominent activities
same,Average tumor weight compared with Vehicle group (one-way analysis of variance),"[6]; 10 μmol/kg, ip",significantly different from that of Vehicle group
same,Tumor Inhibition Rate,[6]; [12],44.60%
same,Average tumor weight,[6]; [12],0.990 ± 0.180 g
same,Tumor Inhibition Rate,"[6]; Table 3, 2 μmol/kg, ip",17.00%
same,Average tumor weight,"[6]; Table 3, 2 μmol/kg, ip",1.424 ± 0.434 g
same,Tumor Inhibition Rate,"[6]; Table 3, 5 μmol/kg, ip",35.64%
same,Average tumor weight,"[6]; Table 3, 5 μmol/kg, ip",1.104 ± 0.218 g
same,Tumor Inhibition Rate,"[6]; Table 3, 10 μmol/kg, ip",41.23%
same,Average tumor weight,"[6]; Table 3, 10 μmol/kg, ip",1.008 ± 0.472 g
same,IC50,"[7]; A549, 48 h, Mean ± SD",> 100 µM
"CS(=O)(=O)NCCNc1ccc([N+](=O)[O-])c2nonc12 [ZD-C, NBD-N-(2-aminoethyl)methanesulfonamide]",IC50,"[1]; LLC, Mean ± SD",> 100 µM
same,IC50,"[2]; MCF-7, 48 h, Mean ± SD",> 100 µM
same,IC50,"[3]; U2Os, Mean ± SD",> 100 µM
same,IC50,"[4]; S180, 48 h, Mean ± SD",> 100 µM
same,IC50,"[5]; HCT116, 48 h, Mean ± SD",> 100 µM
same,Average tumor weight compared with Vehicle group (one-way analysis of variance),"[6]; 10 μmol/kg, ip",different from that of Vehicle group
same,Tumor Inhibition Rate,[6]; [12],29.46%
same,Average tumor weight,[6]; [12],1.260 ± 0.466 g
same,IC50,"[7]; A549, 48 h, Mean ± SD",> 100 µM
"O=C1NCCC[C@@H]1Nc1ccc([N+](=O)[O-])c2nonc12 [ZD-D, NBD-Orn(cycto)]",IC50,"[1]; LLC, Mean ± SD",> 100 µM
same,IC50,"[2]; MCF-7, 48 h, Mean ± SD",> 100 µM
same,IC50,"[3]; U2Os, Mean ± SD",> 100 µM
same,IC50,"[4]; S180, 48 h, Mean ± SD",> 100 µM
same,IC50,"[5]; HCT116, 48 h, Mean ± SD",> 100 µM
same,Tumor Inhibition Rate,[6]; [12],25.77%
same,Average tumor weight,[6]; [12],1.326 ± 0.318 g
same,IC50,"[7]; A549, 48 h, Mean ± SD",> 100 µM
"NCCC[C@H](Nc1ccc([N+](=O)[O-])c2nonc12)C(=O)NCc1ccccc1 [ZD-E, (S)-5-amino-N-benzyl-2-((7-nitro-2,1,3-benzoxadiazol-4-yl)amino)pentaneamide]",IC50,[1]; Mus musculus,> 100 µM
same,IC50,"[2]; Homo sapiens, MCF7, 48 h",85.2 ± 6.1 µM
same,IC50,"[3]; Homo sapiens, U2OS",60.5 ± 0.969 µM
same,IC50,"[4]; Mus musculus, S-180, 48 h",66 ± 2.61 µM
same,IC50,"[5]; Homo sapiens, HCT-116, 48 h",49.7 ± 4.17 µM
same,Tumor Inhibition Rate,[6]; [12],25.82%
same,Average tumor weight,[6]; [12],1.326 ± 0.685 g
same,IC50,"[7]; Homo sapiens, A549, 48 h",> 100 µM
"NCCCC[C@H](Nc1ccc([N+](=O)[O-])c2nonc12)C(=O)NCc1ccccc1 [ZD-F, NBD-Lys(HCl)-NBzl]",IC50,"[1]; LLC, Mean ± SD",> 100 µM
same,IC50,"[2]; MCF-7, 48 h, Mean ± SD",> 100 µM
same,IC50,"[3]; U2Os, Mean ± SD",> 100 µM
same,IC50,"[4]; S180, 48 h, Mean ± SD",> 100 µM
same,IC50,"[5]; HCT116, 48 h, Mean ± SD",> 100 µM
same,IC50,"[7]; A549, 48 h, Mean ± SD",> 100 µM
"N=C(CCl)NCCCC[C@H](Nc1ccc([N+](=O)[O-])c2nonc12)C(=O)NCc1ccccc1 [ZD-F-1, NBD-Lys(C1)-NBzl]",IC50,"[1]; LLC, Mean ± SD",> 100 µM
same,IC50,"[2]; MCF-7, 48 h, Mean ± SD",68.7 ± 1.5 µM
same,IC50,"[3]; U2Os, Mean ± SD",45.7 ± 1.68 µM
same,IC50,"[4]; S180, 48 h, Mean ± SD",23.7 ± 2.29 µM
same,IC50,"[5]; HCT116, 48 h, Mean ± SD",38.9 ± 2.05 µM
same,Water solubility,[8],had no such concerns
same,Tumor growth trend in mice,"[6]; FIG. 4, ZD-E-1 versus ZD-F-1",roughly the same
same,Tumor Inhibition Rate,"[6]; Table 3, 2 μmol/kg, iv",13.32%
same,Average tumor weight,"[6]; Table 3, 2 μmol/kg, iv",1.487 ± 0.660 g
same,Tumor Inhibition Rate,"[6]; Table 3, 5 μmol/kg, iv",30.54%
same,Average tumor weight,"[6]; Table 3, 5 μmol/kg, iv",1.191 ± 0.407 g
same,Tumor Inhibition Rate,"[6]; Table 3, 10 μmol/kg, iv",39.99%
same,Average tumor weight,"[6]; Table 3, 10 μmol/kg, iv",1.029 ± 0.423 g
same,Effect on liver weight (viscera-weight ratio) compared with Vehicle group,[10]; ZD-E-1 at high dosages (10 μmol/kg and 5 μmol/kg),no difference
same,Effect on brain weight (viscera-weight ratio) compared with Vehicle group,[10]; ZD-E-1 at three dosages,no difference
same,IC50,"[7]; A549, 48 h, Mean ± SD",> 100 µM
